According to US10525032B2, “Antimicrobial compositions comprising mupirocin and neomycin” (University of Rochester, priority 2015, dated 2020):
Like-named read-outs stand apart in the source and are kept apart here.

Columns and labels:
S. aureus strain UAMS-1 [1] = assay: Minimum inhibitory concentration (MIC) testing, CLSI microtiter, with or without mupirocin; format: cell-based, Staphylococcus aureus; details: for MIC: Staphylococcus aureus
Method: Screen of Selleck Library. Members of the Selleck Library of Food and Drug […] approved drugs (Selleck Chemicals, Houston Tex., L1300) were screened for agents that potentiate the antimicrobial activity of mupirocin toward S. aureus strain UAMS-1. To do so, 1×10^5 colony forming units of UAMS-1 were added to individual wells of a 96-well microtiter plate, mixed with 0.03 μg/mL mupirocin (0.5× minimum inhibitory concentration) and 50 μM of test agent in Mueller Hinton broth (MHB; 100 μL total well volume). Microtiter plates were incubated at 37° C. for 16 hr, and individual wells were inspected for growth. Wells lacking growth were considered to represent agents that either potentiated the antimicrobial properties of mupirocin or mupirocin-independent antimicrobial microbial properties.
(§1) Antimicrobial Susceptibility Testing. Minimum inhibitory concentration (MIC) was tested in accordance with the Clinical and Laboratory Standards Institute (CLSI) guidelines. Briefly, 1×10^5 CFU of the indicated S. aureus strain was added to individual wells of a microtiter plate containing 88 μL of MHB media and two-fold increasing concentrations of mupirocin or test agent (0-128 μg ml^−1). Plates were incubated for 16 hr at 37° C. and wells were visually inspected for growth. The lowest concentration of mupirocin or test agent that inhibited S. aureus growth was considered to be the minimum inhibitory concentration. Fractional inhibitory concentration index (FIC) testing was performed to measure interactions between mupirocin and neomycin, as previously described. See Odds F C. 2003. Synergy, antagonism, and what the chequerboard puts between them. The Journal of antimicrobial chemotherapy 52:1. Briefly, in checkerboard format each row of the plate contained increasing concentrations of mupirocin (2-fold increments; 0-0.5 μg/mL), whereas each column contained increasing concentrations of neomycin (2-fold increments; 0-32 μg/mL). To every well (100 μl total volume) MHB containing 3×10^5 CFU of S. aureus strain UAMS-1 was added and the plate was incubated at 37° C. overnight (16-20 hr). The FIC was determined using the following formula: (MIC of Drug A in Combination/MIC of Drug A Alone)+(MIC of Drug B in Combination/MIC of Drug B Alone)=FIC. A synergistic interaction was defined as an FIC value≤0.5, additive as FIC value 0.5-1.0, no interaction as an FIC of 1-4, or an antagonistic interaction FIC>4.
Members of the Selleck library of 853 FDA approved drugs were screened for agents that potentiate the activity of mupirocin. […] Conversely, the antimicrobial activity of Nitazoxanide, Nitrofurazone, and Neomycin sulfate, increased in the presence of mupirocin.

S. aureus strain UAMS-1 [2] = assay: Fractional inhibitory concentration index (FIC) checkerboard testing with mupirocin; format: cell-based, Staphylococcus aureus; details: combined with mupirocin, additive = 0.5-1.0
Method: as §1

S. aureus strain UAMS-1 [3] = format: in vivo, Staphylococcus aureus; details: Balb-c mice
Method: Nasal Colonization and Treatment of Mice. Ointments were evaluated for in vivo antimicrobial activity using a S. aureus nasal colonization model as previously described, but with modifications. See Kiser K B, Cantey-Kiser J M, Lee J C. 1999. Development and characterization of a Staphylococcus aureus nasal colonization model in mice. Infect Immun 67:5001-5006. The nostrils of awake mice were inoculated with 1×10^7 of the indicated S. aureus strain by pipetting 10 μL of culture directly into the nostrils and confirmed by the visualization of air bubbles appearing as the mouse breathed in and out. Mice nostrils were then treated with 10 μL PEG ointment (brought to 55° C. in a heat block to liquefy) containing either vehicle alone or the indicated antibiotic 45 min post inoculation and treatments were repeated every 8 hr for three days. […]
A murine model of S. aureus nasal colonization was used to compare the antimicrobial efficacy of mupirocin, neomycin, and the two agents when applied in combination. To do so, the nasal passage of Balb-c mice were inoculated with ˜1×10^7 colony forming units of S. aureus then treated three times a day for a total of three days, at which point the bacterial burden was measured and the antibiotic susceptibility of ten isolates from each animal was measured by MIC testing.

S. aureus strain UAMS-1 [4] = assay: Murine dermal wound model of infection; format: in vivo, Staphylococcus aureus
Method: Dermal Wound Model of Infection and Treatment of Mice. The effects of ointment compilations were evaluated for in vivo antimicrobial activity using a S. aureus dermal wound model, but with modifications. See Guthrie K M, Agarwal A, Tackes D S, Johnson K W, Abbott N L, Murphy C J, Czuprynski C J, Kierski P R, Schurr M J, McAnulty J F. 2012. Antibacterial efficacy of silver-impregnated polyelectrolyte multilayers immobilized on a biological dressing in a murine wound infection model. Annals of surgery 256:371-377. Mice were anesthetized by intraperitoneal injection with a mixture of 100 mg ml^−1 Ketamine (Hospira Inc., Lake Forest Ill.) and 20 mg ml^−1 Xylazine (Lloyd Laboratories, Shenandoah Iowa) in NaCl at five μ1 per 1 g body weight. Pain relief in the form of 20 μL 0.5% Sensorcaine (APP Pharmaceuticals, Schaumburg, Ill.) was administered prior to dermal wounding. […]
To do so, a dermal wound was created on the back of Balb-c mice, inoculated with either S. aureus strain UAMS-1, USA300, or BAA-1708, and then treated with test agent suspended in PEG-based ointment twice a day for a total of 3 days, at which point bacterial burden was measured.

S. aureus strain UAMS-1 [5] = details: previous studies; cited from earlier work
strain BAA-1708 = assay: MIC testing; format: cell-based; details: Staphylococcus aureus, BAA1708; BAA-1708 (mupA), data not shown
Method: as §1, with “To every well (100 μl total volume) MHB containing 3×10^5 CFU of S. aureus strain UAMS-1 was added and the plate was incubated at 37° C. overnight (16-20 hr).” left out, “A synergistic interaction was defined as an FIC value≤0.5, additive as FIC value 0.5-1.0, no interaction as an FIC of 1-4, or an antagonistic interaction FIC>4.” left out

S. aureus RNase P = assay: RNase P ptRNA processing assay; format: biochemical, Staphylococcus aureus; details: 250 μM, in vitro
Method: RNase P ptRNA Processing Assay. S. aureus RNase P activity assays were performed as previously described. See Eidem T M, Lounsbury N, Emery J F, Bulger J, Smith A, Abou-Gharbia M, Childers W, Dunman P M. 2015. Small-molecule inhibitors of Staphylococcus aureus RnpA-mediated RNA turnover and tRNA processing. Antimicrob Agents Chemother 59:2016-2028. Briefly, RNase P was first reconstituted by mixing an equimolar ratio of denatured rnpB and RnpA for 15 min at 37° C. then added (5 pmol) to 10 pmol of ptRNA^Tyr, and increasing concentrations of the indicated concentration of neomycin or the known RNase P inhibitor, RNPA2000 in a total volume of 20 μl. […] A FluorChem 5500 imaging system was used to visualize RNA products and quantified using ImageJ software (National Institutes of Health, Bethesda Md.). The percent RNase P activity was then calculated using the following equation: test compound tRNA^Tyr signal/mock tRNA^Tyr signal.
Aminoglycoside antibiotics, such has neomycin, contain a central deoxystreptamine ring decorated with amino-sugar modifications and act by binding to the major groove of the 16S rRNA to disrupt the fidelity of tRNA selection and block protein translation. […] A real-time fluorescence polarization activity assay to screen for inhibitors of bacterial ribonuclease P. Nucleic acids research 42:e159.

USA300 = assay: MIC testing; format: cell-based, Staphylococcus aureus; details: USA300, data not shown
Method: as §1, with “To every well (100 μl total volume) MHB containing 3×10^5 CFU of S. aureus strain UAMS-1 was added and the plate was incubated at 37° C. overnight (16-20 hr).” left out, “A synergistic interaction was defined as an FIC value≤0.5, additive as FIC value 0.5-1.0, no interaction as an FIC of 1-4, or an antagonistic interaction FIC>4.” left out

[6] = UAMS1, medium containing 0.25× the strain's mupirocin MIC, UAMS-1, read-out: MIC (+) Mup.
[7] = UAMS1, read-out: MIC (−) Mup., medium lacking mupirocin, UAMS-1

In the case of `CC(=O)Oc1ccccc1C(=O)Nc1ncc([N+](=O)[O-])s1` [Nitazoxanide], the MIC (S. aureus strain UAMS-1 [1]; [6]) is reported as 8 µg/mL, the MIC (S. aureus strain UAMS-1 [1]; [7]) is reported as 16 µg/mL and the “Fractional Inhibitory Concentration Index” value (S. aureus strain UAMS-1 [2]) is reported as 0.75.

For `CC(C)c1ccc(OCC(=O)NNC(=S)NC(=O)c2ccco2)cc1` [RNPA2000], the “nasal decolonization (in words)” value (S. aureus strain UAMS-1 [3]) is given as “does not exhibit antimicrobial activity”, the “wound decolonization (in words)” value (S. aureus strain UAMS-1 [4]) is given as “does not exhibit antimicrobial activity” and the “FIC measures with mupirocin” value (S. aureus strain UAMS-1 [5]) is given as < 0.5.

For `C/C(=C\C(=O)OCCCCCCCCC(=O)O)C[C@@H]1OC[C@H](C[C@@H]2O[C@H]2[C@@H](C)[C@H](C)O)[C@@H](O)[C@H]1O` [mupirocin], the MIC (S. aureus strain UAMS-1 [1]; UAMS1, UAMS-1 isolates from two 2% mupirocin treated mice with higher nasal burdens) was 0.5 µg/mL, the MIC (S. aureus strain UAMS-1 [1]; UAMS1, inoculating strain UAMS-1 and isolates from the other animals of the 2% mupirocin nasal treatment group) was 0.125 µg/mL and the MIC (S. aureus strain UAMS-1 [1]; UAMS1, read-out: mupirocin minimum inhibitory concentration (MIC), UAMS-1, as stated for the library screen) was 0.3 µg/mL. The “increase in mupirocin tolerance” value (S. aureus strain UAMS-1 [1]; isolates from two higher-burden mice versus inoculating strain) was 4 fold and the MIC (strain BAA-1708) was > 256 µg/mL.

In the case of neomycin, the “MIC (+) Mup.” value (S. aureus strain UAMS-1 [1]; medium containing 0.25× the strain's mupirocin MIC, UAMS-1) is reported as 0.25 µg/mL, the “MIC (−) Mup.” value (S. aureus strain UAMS-1 [1]; medium lacking mupirocin, UAMS-1) is reported as 0.5 µg/mL and the “Fractional Inhibitory Concentration Index” value (S. aureus strain UAMS-1 [2]) is reported as 0.75. The “inhibition of RNase P-catalyzed maturation of precursor tRNA^Tyr” value (S. aureus RNase P) was “inhibit” and the MIC (USA300) was 128 µg/mL.

In the case of `NC(=O)N/N=C/c1ccc([N+](=O)[O-])o1` [Nitrofurazone], the MIC (S. aureus strain UAMS-1 [1]; [6]) is reported as 8 µg/mL, the MIC (S. aureus strain UAMS-1 [1]; [7]) is reported as 16 µg/mL and the “Fractional Inhibitory Concentration Index” value (S. aureus strain UAMS-1 [2]) is reported as 0.75.
